From article PMC10485894, “Corticosteroids as Selective and Effective Modulators of Glycine Receptors” (ACS Chemical Neuroscience, 2023)
Read-outs that look alike come from different tables or passages of the source.

Legend:
[1] = tested on: GABA-A receptors (GABAAR); assay: GABA-activated chloride current (IGABA), whole-cell patch clamp in isolated cerebellar Purkinje cells
Procedure: (§1) First, the ability of steroids to affect the holding current at the voltage-clamp regime was tested. […] Next, the influence of all of the compounds on IGABA and IGly was evaluated. […] The latter effect was quantified by the change in the time constant of the IGly decay (IGly τdes).
(§2) The cells were isolated from rat brain slices as described in detail elsewhere.[47] Briefly, the slices (200–500 μm) of Wistar rat (11–14 days of age) hippocampus or cerebellum were incubated at room temperature for at least 2 h in a solution containing the following components (in mM): 124 NaCl, 3 KCl, 2 CaCl2, 2 MgSO4, 25 NaHCO3, 1.3 NaH2PO4, and 10 D-glucose, pH 7.4. The saline was continuously stirred and bubbled with carbogen (95% O2 + 5% CO2). Single pyramidal neurons from the hippocampal CA3 area or Purkinje cells from sagittal slices of the cerebellum were isolated by a vibrating fused glass pipet with a spherical tip.
(§3) Transmembrane currents were recorded using a conventional patch-clamp technique in the whole-cell configuration. […] The solution in the recording pipet contained the following (in mM): 40 CsF, 100 CsCl, 0.5 CaCl2, 5 EGTA, 3 MgCl2, 4 NaATP, 5 HEPES, pH 7.3. The composition of the extracellular solution was as follows (in mM): 140 NaCl, 3 KCl, 3 CaCl2, 3 MgCl2, 10 D-glucose, 10 HEPES hemisodium, pH 7.4. The speed of perfusion was 0.6 mL/min. Recording of the currents was performed using an EPC7 patch-clamp amplifier (HEKA Elektronik, Germany). The holding potential was maintained at −70 mV. Transmembrane currents were filtered at 3 kHz, stored, and analyzed with IBM-PC computer, using homemade software.
(§4) Statistical analysis was performed with Prism Graphpad software. […] N = 6–8 cells from 3 animals for every average value. […] The EC50 value for steroid potentiation of the IGABA was determined using the equation: Y = Bottom + (Top – Bottom)/[1 + (EC50/C)^n], where Bottom and Top are current amplitudes measured in the control solution and in the presence of steroid, respectively, C is the concentration of steroid, EC50 is the half-maximal stimulating concentration, and n is the slope factor (Hill coefficient).

glycine receptors (GlyR) = assay: Glycine-activated chloride current (IGly), whole-cell patch clamp in isolated hippocampal pyramidal neurons; settings: for Ipeak max (maximum inhibition attainable) / IC50 / τdes max (maximum inhibition attainable) / normalized charge (Q) of IGly, maximum inhibition (max): 100 μM glycine; for Ipeak max (maximum inhibition attainable) / τdes max (maximum inhibition attainable) / normalized charge (Q) of IGly, maximum inhibition (max): fraction; for IGly peak, effect at 10 μM / IGly τdes, effect at 10 μM: steroid 10 μM coapplied with 100 μM glycine; for IGly peak, effect at 10 μM: hippocampal neurons; for IGly τdes, effect at 10 μM: time constant of IGly decay; for τdes max (maximum inhibition attainable): time constant of desensitization of IGly;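 for all read-outs here: rat CA3 hippocampal pyramidal cells, whole-cell voltage clamp held at −70 mV, steroids tested over 0.01–100 µM, 6–8 cells from 3 animals per mean value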
Procedure: as §1, §2, §3, §4

[2] = steroid 10 μM coapplied with GABA (2 or 5 μM), Purkinje cells
[3] = read-out: Ipeak IC50, peak amplitude of IGly
[4] = read-out: τdes IC50, acceleration of IGly desensitization
[5] = read-out: normalized charge (Q) of IGly, IC50, area under the IGly curve

In the case of C[C@]12CCC(=O)C=C1CC[C@@H]1[C@@H]2C(=O)C[C@@]2(C)[C@H]1CC[C@]2(O)C(=O)CO [Cortisone, 17α,21-Dihydroxypregn-4-ene-3,11,20-trione], the “IGABA peak, effect at 10 μM” value [1, 2] is reported as “No effect”, the “Ipeak max (maximum inhibition attainable)” value (glycine receptors (GlyR); peak amplitude of IGly) is reported as 0.57 ± 0.1 and the IC50 (glycine receptors (GlyR); [3]) is reported as 13.6 ± 5.5 µM. The IC50 (glycine receptors (GlyR); [4]) was 10.3 ± 3.4 µM, the “IGly peak, effect at 10 μM” value (glycine receptors (GlyR)) was -25% and the “IGly τdes, effect at 10 μM” value (glycine receptors (GlyR)) was -24%. For the same compound, the “τdes max (maximum inhibition attainable)” value (glycine receptors (GlyR)) was 0.48 ± 0.06.

For C[C@]12CC[C@H]3[C@@H](CCC4=CC(=O)CC[C@@]43C)[C@@H]1CC[C@@H]2C(=O)CO [11-deoxy-CORT, 21-Hydroxypregn-4-ene-3,20-dione], the “IGABA peak, effect at 10 μM” value [1] was “No effect”, the “amplitude of IGABA, % of control (inhibition)” value [1] was 70 ± 3 % of the control and the “effect on IGly at low glycine” value (glycine receptors (GlyR); 1 μM steroid, 25 μM glycine (EC10)) was “did not affect”. For the same compound, the “decrease in the peak amplitude of IGly” value (glycine receptors (GlyR); 50 μM steroid, 25 μM glycine (EC10)) was 45 ± 7%, the “Ipeak max (maximum inhibition attainable)” value (glycine receptors (GlyR); peak amplitude of IGly) was 0.67 ± 0.2 and the IC50 (glycine receptors (GlyR); [3]) was 22.9 ± 9.4 µM. For the same compound, the IC50 (glycine receptors (GlyR); [4]) was 12.2 ± 3.7 µM, the “IGly peak, effect at 10 μM” value (glycine receptors (GlyR)) was “No effect” and the “IGly τdes, effect at 10 μM” value (glycine receptors (GlyR)) was -32%. For the same compound, the “τdes max (maximum inhibition attainable)” value (glycine receptors (GlyR)) was 0.72 ± 0.08.

C[C@]12C[C@H](O)[C@H]3[C@@H](CCC4=CC(=O)CC[C@@]43C)[C@@H]1CC[C@@H]2C(=O)CO [CORT, 11β,21-Dihydroxypregn-4-ene-3,20-dion] was tested, and the “IGABA peak, effect at 10 μM” value [1, 2] was “No effect”, the “Ipeak max (maximum inhibition attainable)” value (glycine receptors (GlyR); peak amplitude of IGly) was 0.54 ± 0.1 and the IC50 (glycine receptors (GlyR); [3]) was 12.6 ± 4.8 µM. The IC50 (glycine receptors (GlyR); [4]) was 0.43 ± 0.05 µM, the “IGly peak, effect at 10 μM” value (glycine receptors (GlyR)) was -26% and the “IGly τdes, effect at 10 μM” value (glycine receptors (GlyR)) was -64%. The “τdes max (maximum inhibition attainable)” value (glycine receptors (GlyR)) was 0.64 ± 0.02.

C[C@]12CC[C@@H](O)C[C@H]1CC[C@@H]1[C@@H]2[C@@H](O)C[C@]2(C)[C@@H](C(=O)CO)CC[C@@H]12 [3α5β-CORT, 3α,11β,21-Trihydroxy-5β-pregnan-20-one] was tested, and the “IGABA peak amplitude, % of control” value [1] was 133 ± 8 % of the control, the “effect on maximal GABA current” value [1] was “did not change” and the “maximum effect (max) on IGABA” value [1] was 198 ± 11 % of the control. For the same compound, the “threshold concentration for potentiation of IGABA” value ([1]; 2 μM GABA) was 10 µM, the “IGABA, % of control” value ([1]; 50 μM steroid, 2 μM GABA) was 172 ± 18 % of control and the “IGABA, % of control” value ([1]; 50 μM steroid, 5 μM GABA) was 139 ± 16 % of control. The “Ipeak max (maximum inhibition attainable)” value (glycine receptors (GlyR); peak amplitude of IGly) was 0.44 ± 0.1, the IC50 (glycine receptors (GlyR); [3]) was 23 ± 9.6 µM and the IC50 (glycine receptors (GlyR); [4]) was 15.2 ± 6.2 µM. The “IGly peak, effect at 10 μM” value (glycine receptors (GlyR)) was “No effect”, the “IGly τdes, effect at 10 μM” value (glycine receptors (GlyR)) was -24% and the “τdes max (maximum inhibition attainable)” value (glycine receptors (GlyR)) was 0.56 ± 0.08.

C[C@]12CC[C@H](O)CC1=CCC1C2CC[C@@]2(C)C1CC[C@]2(O)C(=O)CO (stereo partly drawn) [17α,21-diOH-PREG, 3β,17α,21-Trihydroxypregn-5-en-20-one] was tested, and the “IGABA peak, effect at 10 μM” value [1] was “No effect”, the “normalized charge (Q) of IGly, maximum inhibition (max)” value (glycine receptors (GlyR); area under the IGly curve) was 0.52 ± 0.01 and the “Ipeak max (maximum inhibition attainable)” value (glycine receptors (GlyR); peak amplitude of IGly) was 0.45 ± 0.1. For the same compound, the IC50 (glycine receptors (GlyR); [3]) was 7.2 ± 2.6 µM, the IC50 (glycine receptors (GlyR); [5]) was 0.73 ± 0.06 µM and the IC50 (glycine receptors (GlyR); [4]) was 0.39 ± 0.05 µM. The “IGly peak, effect at 10 μM” value (glycine receptors (GlyR)) was -27%, the “IGly τdes, effect at 10 μM” value (glycine receptors (GlyR)) was -76% and the “τdes max (maximum inhibition attainable)” value (glycine receptors (GlyR)) was 0.77 ± 0.03.

NCC(=O)O [glycine] gave an EC50 (glycine receptors (GlyR); read-out: EC50 of glycine for IGly, 600–1000 ms application) of 90 ± 7 µM.

For C[C@]12CCC(=O)C[C@@H]1CC[C@@H]1[C@@H]2CC[C@]2(C)[C@@H](C(=O)CO)CC[C@@H]12 [5α-CORT, 21-Hydroxy-5α-pregnane-3,20-dione], the “IGABA peak, effect at 10 μM” value [1] was “No effect”, the “Ipeak max (maximum inhibition attainable)” value (glycine receptors (GlyR); peak amplitude of IGly) was 0.86 ± 0.2 and the IC50 (glycine receptors (GlyR); [3]) was 32 ± 12.6 µM. The IC50 (glycine receptors (GlyR); [4]) was 0.71 ± 0.02 µM, the “IGly peak, effect at 10 μM” value (glycine receptors (GlyR)) was “No effect” and the “IGly τdes, effect at 10 μM” value (glycine receptors (GlyR)) was -36%. For the same compound, the “τdes max (maximum inhibition attainable)” value (glycine receptors (GlyR)) was 0.37 ± 0.04.

With C[C@]12CC[C@@H](O)C[C@@H]1CC[C@@H]1[C@@H]2[C@@H](O)C[C@]2(C)[C@@H](C(=O)CO)CC[C@@H]12 [3α5α-CORT, 3α,11β,21-Trihydroxy-5α-pregnan-20-one] the “IGABA, % of control” value [1] was 120 ± 16 % of control, the “effect on maximal GABA current” value [1] was “did not change” and the “maximum effect (max) on IGABA” value [1] was 420 ± 19 % of the control. For the same compound, the “potentiating effect on IGABA at higher GABA concentrations” value [1] was “not observed”, the “threshold concentration for potentiation of IGABA” value ([1]; 2 μM GABA) was 5 µM and the “IGABA peak amplitude, % of control” value ([1]; 5 μM steroid, 2 μM GABA) was 150 ± 8 % of the control. For the same compound, the “IGABA, % of control” value ([1]; 50 μM steroid, 2 μM GABA) was 371 ± 16 % of control, the “IGABA, % of control” value ([1]; 50 μM steroid, 5 μM GABA) was 156 ± 15 % of control and the “Ipeak max (maximum inhibition attainable)” value (glycine receptors (GlyR); peak amplitude of IGly) was 0.51 ± 0.1. The IC50 (glycine receptors (GlyR); [3]) was 11.8 ± 5.7 µM, the IC50 (glycine receptors (GlyR); [4]) was 0.72 ± 0.03 µM and the “IGly peak, effect at 10 μM” value (glycine receptors (GlyR)) was -26%. For the same compound, the “IGly τdes, effect at 10 μM” value (glycine receptors (GlyR)) was -54% and the “τdes max (maximum inhibition attainable)” value (glycine receptors (GlyR)) was 0.59 ± 0.08.

C[C@]12CCC(=O)C[C@H]1CC[C@@H]1[C@@H]2CC[C@]2(C)[C@@H](C(=O)CO)CC[C@@H]12 [5β-CORT, 21-Hydroxy-5β-pregnane-3,20-dione] was tested, and the “IGABA peak, effect at 10 μM” value [1] was “No effect”, the “normalized charge (Q) of IGly, maximum inhibition (max)” value (glycine receptors (GlyR); area under the IGly curve) was 0.96 ± 0.15 and the “Ipeak max (maximum inhibition attainable)” value (glycine receptors (GlyR); peak amplitude of IGly) was 0.85 ± 0.3. It also gave an IC50 (glycine receptors (GlyR); [3]) of 29.3 ± 9.9 µM, an IC50 (glycine receptors (GlyR); [5]) of 37 ± 13 µM and an IC50 (glycine receptors (GlyR); [4]) of 13.1 ± 5.8 µM. The “IGly peak, effect at 10 μM” value (glycine receptors (GlyR)) was “No effect”, the “IGly τdes, effect at 10 μM” value (glycine receptors (GlyR)) was -27% and the “τdes max (maximum inhibition attainable)” value (glycine receptors (GlyR)) was 0.61 ± 0.09.

In the case of CN1CCc2cc3c(cc2[C@H]1[C@@H]1OC(=O)c2c1ccc1c2OCO1)OCO3 [bicuculline], the “effect on IGABA” value [1] is reported as “reversibly blocked”.

In the case of C[C@]12CCC(=O)C=C1CC[C@@H]1[C@@H]2[C@@H](O)C[C@@]2(C)[C@H]1CC[C@]2(O)C(=O)CO [Cortisol, 11β,17α,21-Trihydroxypregn-4-ene-3,20-dione], the “IGABA peak, effect at 10 μM” value [1, 2] is reported as “No effect”, the “Ipeak max (maximum inhibition attainable)” value (glycine receptors (GlyR); peak amplitude of IGly) is reported as 0.49 ± 0.1 and the IC50 (glycine receptors (GlyR); [3]) is reported as 20.2 ± 9.8 µM. For the same compound, the IC50 (glycine receptors (GlyR); [4]) was 0.63 ± 0.02 µM, the “IGly peak, effect at 10 μM” value (glycine receptors (GlyR)) was -23% and the “IGly τdes, effect at 10 μM” value (glycine receptors (GlyR)) was -40%. For the same compound, the “τdes max (maximum inhibition attainable)” value (glycine receptors (GlyR)) was 0.42 ± 0.05.

For C[C@]12CCC(=O)C=C1CC[C@@H]1[C@@H]2CC[C@@]2(C)[C@H]1CC[C@]2(O)C(=O)CO [11-Deoxycortisol, 17α,21-Dihydroxypregn-4-ene-3,20-dione], the “amplitude of IGABA, % of control (inhibition)” value ([1]; 100 μM steroid, 5 μM GABA) was 58 ± 5 % of the control, the “IGABA peak, effect at 10 μM” value [1, 2] was “No effect” and the “Ipeak max (maximum inhibition attainable)” value (glycine receptors (GlyR); peak amplitude of IGly) was 0.69 ± 0.2. For the same compound, the IC50 (glycine receptors (GlyR); [3]) was 21.4 ± 7.6 µM, the IC50 (glycine receptors (GlyR); [4]) was 13.8 ± 6.3 µM and the “IGly peak, effect at 10 μM” value (glycine receptors (GlyR)) was -26%. The “IGly τdes, effect at 10 μM” value (glycine receptors (GlyR)) was -21% and the “τdes max (maximum inhibition attainable)” value (glycine receptors (GlyR)) was 0.50 ± 0.08.
